A short description of the series: gradient 5% acetonitrile 3 min, to 50% in 2 min, to 85% in 15 min, held 3 min, 100 µL/min. The note with it: column: Zorbax Extend-C18 2.1 x 50 mm; eluents: water / acetonitrile, 0.1% formic acid. The gist of the method: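 Pure standards were analyzed in mixtures of ~100 molecules using HPLC coupled to a quadrupole time-of-flight mass spectrometer, in both positive and negative ionization mode. Separation used a Zorbax Extend-C18 column (2.1 × 50 mm, 1.8 μm) at 100 μL/min, with water and acetonitrile each containing 0.1% formic acid. Dead and dwell volumes were 40 μL and 900 μL, and data were collected over 3 months. Retention time was read from computationally picked adduct peaks, each inspected manually.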
For the molecule `CCC(C)NC(=O)C1CCN(S(C)(=O)=O)c2cc(Cl)ccc2O1` (stereo not drawn), the RP-LC retention time is 862 s.
In the case of `COc1ccc(CC(=O)NCC(c2ccsc2)N2CCc3ccccc3C2)cc1OC` (stereo not drawn), the RP-LC retention time was found to be 573 s.
`COc1ccc(-c2c(C)noc2NC(C)=O)cc1S(=O)(=O)N1CCc2ccccc2C1` showed an RP-LC retention time of 807 s.
For `CCc1ccc(NC(=O)N2CCc3nc[nH]c3C2)cc1`, the RP-LC retention time was determined as 612 s.
For the molecule `O=C(Cc1cccc(F)c1)N1CCC2(C1)C(=O)Nc1ccccc12` (stereo not drawn), the RP-LC retention time was 713 s.
With `COc1ccc(C2C(C(=O)NCc3ccco3)c3cc(OC)c(OC)cc3C(=O)N2C)cc1` (stereo not drawn) the figure was 758 s.
Then `O=C1CC(c2cccc(Cl)c2)Cc2nc(N3CCN(c4ccccc4)CC3)ncc21` (stereo not drawn), with 1340 s; and `CCC(C(=O)NCc1ccc(C)o1)n1nc(C)c2nn(-c3ccccc3)c(C)c2c1=O` (stereo not drawn), with 870 s; and `Cc1noc([C@@H]2CC(F)(F)CN2C(=O)CCc2c(C)noc2C)n1`, with 718 s.
With `CCN1CCc2ncnc(SCC(=O)Nc3ccc(Cl)cc3C(F)(F)F)c2C1` the figure was 597 s.
As to `Cc1cc(C)c(S(=O)(=O)N2CCCC2c2nc(-c3ccc(Cl)cc3)no2)cc1C` (stereo not drawn), the RP-LC retention time amounted to 1340 s.
Take `Cc1ccc(-c2csc(NC(=O)CCc3nc(CSc4nc5ccc(C)cc5[nH]4)no3)n2)cc1`: the RP-LC retention time was found to be 852 s.
Molecule `O=C(Nc1cccn2nc(C3CCC3)nc12)c1ccccn1` registered an RP-LC retention time of 961 s.
Turning to `CCc1ccccc1NC(=O)CSc1nnc2ccc(C(=O)Nc3cccc(F)c3)cn12`, the RP-LC retention time stood at 776 s.
Then `O=C(NC1CCCCCCC1)C1CCCN(C(=O)c2cc(-c3cccnc3)n[nH]2)C1` (stereo not drawn), with 631 s.
Regarding `CCOC(=O)c1c(S(=O)(=O)N2CCC(C(=O)Nc3cccc(CC)c3)CC2)c(C)n(CC)c1C`, the RP-LC retention time stood at 984 s.
Then `O=C(Nc1c(-c2ccc(F)cc2)nc2ccccn12)c1ccccc1`, with 638 s.
Then `CN(C)CCNC(=O)C1CCCN(c2ncnc3c2nc2n3CCCCC2)C1` (stereo not drawn), with 573 s.
Consider `CCn1cc(C(=O)NCc2ccc(Br)cc2)c2cccnc21`, for which the RP-LC retention time is 836 s.
With `COc1ccc(-c2cc(C(=O)N3CCN(c4c(C)n(C)c(=O)n(C)c4=O)CC3)c3ccccc3n2)cc1` the figure was 806 s.
Consider `CCNC(=O)c1csc(N2CCCC2)n1`, for which the RP-LC retention time amounted to 723 s.
Then `CC[C@H](C)C(=O)O[C@H]1C[C@H](O)C=C2C=C[C@H](C)[C@H](CC[C@@H]3C[C@@H](O)CC(=O)O3)[C@H]21`, with 891 s; and `CCOc1ccc(-c2cc3c(=O)n(Cc4nc(-c5ccc(C)c(C)c5)no4)ncn3n2)cc1`, with 1260 s; and `CC(C)CN1CCN(C(=O)c2cn(-c3ccc(-c4nc(C(C)(C)C)no4)cn3)cn2)CC1`, with 699 s.
Consider `CCOCCCNC(=O)C1CCCN(c2ncc(-c3cccc(F)c3)cn2)C1` (stereo not drawn), for which the RP-LC retention time is 902 s.
With `CCOC(=O)c1cc2c([nH]c1=O)CC(c1ccccc1)CC2=O` (stereo not drawn) the figure was 735 s; with `Cc1ccccc1-c1noc(C2CCCN2C(=O)NC2CCCCC2)n1` (stereo not drawn), 1020 s.
On to `CCc1cc(=O)n(CC(=O)Nc2cccc(C)c2C)c(N2CCOCC2)n1`, for which the RP-LC retention time came to 764 s.
With `Cc1ccc2[nH]cc(CCNC(=O)Nc3ccc(Cl)c(Cl)c3)c2c1` the figure was 1050 s; with `CCCn1c(=O)c(C)nc2cc(-c3noc(CN4C(=O)COc5ccc(Cl)cc54)n3)ccc21`, 1060 s.
`CCCNC(=O)c1ncn2c1C(=O)N(C1CC1)C(C)(C(=O)NCc1cccc(C)c1)C2` (stereo not drawn) had an RP-LC retention time of 717 s.
With `O=C(CCC1CCCC1)NC1CCN(c2ccc(=O)[nH]n2)C1` (stereo not drawn) the figure was 649 s; with `O=C(Cn1cccc1-c1nc(-c2ccc3c(c2)OCO3)no1)Nc1ccc(Cl)cc1`, 1070 s.
As for `CCn1ccc2sc(C)c(C(=O)NCc3cc(OC)ccc3OC)c2c1=O`, the RP-LC retention time was 716 s.
Turning to `CC1OC(Oc2c(-c3cc(O)c(O)c(O)c3)oc3cc(O)cc(O)c3c2=O)C(O)C(O)C1O` (stereo not drawn), the RP-LC retention time is 651 s.
Then `CCOc1ncccc1CNC(=O)CC1CCCC1`, with 812 s; and `Cc1ccc(CNC(=O)C2CCCN(S(=O)(=O)c3c[nH]c(C(=O)N4CCCC4)c3)C2)cc1` (stereo not drawn), with 762 s.
With `CN(C1CCc2nn(CC3CC3)c(=O)n2CC1)S(=O)(=O)c1cccc(F)c1` (stereo not drawn) the figure was 777 s.
With `CN(C)c1ccc(NC(=O)COc2ccc(-c3nnc4n3CCCC4)cc2)cc1` the figure was 585 s.
In the case of `COc1ccc(-c2noc(COC(=O)C3=CN(C)S(=O)(=O)N=C3C)n2)cc1`, the RP-LC retention time came to 926 s.
In turn, `O=C(c1cn(-c2cc(Nc3ccccc3)ncn2)cn1)N1CCN(c2ncccn2)CC1` had an RP-LC retention time of 749 s.
`CCN1CCN(CCNC(=O)C2CCN(c3nccnc3Sc3ccc(C)cc3)CC2)CC1` returned an RP-LC retention time of 639 s.
The molecule `CC(=O)N(C)c1ccc(NS(=O)(=O)c2ccc(C)cc2)c([N+](=O)[O-])c1` registered an RP-LC retention time of 742 s.
Then `O=C(NC1CC1)C1CCN(S(=O)(=O)c2ccc(-c3noc(C4CC4)n3)cc2)CC1`, with 803 s.
With `O=C(Nc1ccc(F)c(F)c1)C1CCCN(S(=O)(=O)Cc2ccc(F)cc2)C1` (stereo not drawn) the figure was 990 s; with `COc1ccc(OC)c(CNC(=O)CCc2c(C)nn(-c3cc(N(C)C)ncn3)c2C)c1`, 726 s; with `CCn1c(=O)sc2cc(S(=O)(=O)N3CCC(C(=O)N4CCCCC4)CC3)ccc21`, 845 s.
For `COc1ccc2[nH]cc(CCNC(=O)CC3CCN(C(=O)C4CCCCC4)CC3)c2c1`, the RP-LC retention time was 757 s.
With `Cc1cc(N2CCN(S(=O)(=O)c3ccc(-c4ccccc4)cc3)CC2)nc(NC2CCCCC2)n1` the figure was 970 s.
For the molecule `COc1ccccc1-c1noc(Cn2c(=O)n(-c3ccc(C)cc3)c(=O)c3sccc32)n1`, the RP-LC retention time was 911 s.
Then `CCCC(NC(=O)c1ccc(Cl)cc1)C(=O)Nc1nc2ccccc2[nH]1` (stereo not drawn), with 742 s.
Take `Cc1ccc(Nc2c(-c3c(F)cccc3Cl)nc3ccc(C)cn23)cc1`: the RP-LC retention time is 773 s.
On to `COC(=O)C(NC(=O)Nc1ccc(-c2nc(-c3ccccc3)co2)cc1)c1ccccc1` (stereo not drawn), for which the RP-LC retention time came to 1090 s.
Then `CCCCn1c(=O)c2ccccc2n(Cc2nc(-c3ccc(F)c(Cl)c3)no2)c1=O`, with 1290 s.
Then `Cc1nc(Oc2ccccc2)cc(N2CCN(C(=O)c3c(F)cccc3F)CC2)n1`, with 785 s; and `O=C(Cc1c(F)cccc1Cl)Nc1nc2c(s1)CN(S(=O)(=O)c1ccccc1)CC2`, with 950 s; and `CCOc1ccc(NC(=O)N2CCCC(C)(C(=O)NCc3ccccc3C)C2)cc1` (stereo not drawn), with 855 s.
Then `Cc1ccc(S(=O)(=O)N2CCC(n3cnc4ccc(C)cc4c3=O)CC2)cc1`, with 925 s; and `O=C(Nc1ccc(-c2nnc3n2CCCC3)cc1)C1CCCCC1`, with 699 s; and `CN(C)CCC1c2ccc(Cl)cc2CCc2cccnc21` (stereo not drawn), with 666 s.
With `CO[C@H]1C(=O)N(C(C)C)[C@H]1C1CCN(C(=O)C(C)C)CC1`, the RP-LC retention time worked out at 682 s.
With `CCc1ccc2c(c1)-c1ccccc1S(=O)(=O)N2CC(=O)N1CCN(CC)CC1` the figure was 678 s; with `CNC(=O)c1cc(-c2ccc(F)cc2)nc2ccccc12`, 819 s; with `COc1ccc(NC(=O)C2CCN(C(=O)C3Sc4ccccc4NC3=O)CC2)cc1Cl` (stereo not drawn), 795 s.
Then `C[C@H]1CN(C(=O)Cc2c[nH]c3ccccc23)C[C@@H]1c1nc(-c2cccnc2)no1`, with 755 s; and `Cc1ccc(C(=O)N2CCC(n3cnnc3-c3ccccc3)C2)cn1` (stereo not drawn), with 573 s.
In the case of `CCOC(=O)C1C(=O)C=C(c2cccc(NS(C)(=O)=O)c2)CC1c1cccs1` (stereo not drawn), the RP-LC retention time was 822 s.
`CC(C)NC(=O)N1CCCC1c1noc(COc2ccc(F)cc2)n1` (stereo not drawn) displayed an RP-LC retention time of 799 s.
In turn, `O=C(NCC1CCCCC1)C1CCN(c2nnc3ccccn23)CC1` yielded an RP-LC retention time of 628 s.
With `O=C(Cn1c(-c2ccc(F)cc2)nc2ccccc21)N1CCOCC1` the figure was 592 s; with `O=C(NCc1ccccc1F)C1CCN(c2nnc3ccc(C(F)(F)F)cn23)CC1`, 764 s; with `CC(=O)Nc1c(C)noc1/C=C/c1ccc(S(=O)(=O)N2CCC(C)CC2)s1`, 869 s.
`COc1ccc(-c2c(C)noc2NC(C)=O)cc1S(=O)(=O)Nc1cccc(C(F)(F)F)c1` gave an RP-LC retention time of 821 s.
Then `COc1ccc(CC(=O)Nc2nnc(-c3ccsc3)o2)cc1OC`, with 655 s; and `CC12CCC3C(CC=C4CC(O)CCC43C)C1C/C(=C\N1CCCC1)C2=O` (stereo not drawn), with 943 s; and `O=S(=O)(c1cccc(F)c1)N1CCC(Cc2nncn2-c2ccccc2)C1` (stereo not drawn), with 752 s.
As to `CCc1nc2cc(-c3noc(Cc4cccc(F)c4)n3)ccc2o1`, the RP-LC retention time came to 1050 s.
Then `COc1ccc2[nH]cc(CCNC(=O)CN3C(=O)c4cccnc4Sc4ccccc43)c2c1`, with 734 s.

Source of the values: the METLIN SMRT retention time set (Domingo-Almenara et al. 2019).
